One series addresses T1, ABCG2 (Homo sapiens, UniProt Q9UNQ0).
T1 sequence (Q9UNQ0 1-655): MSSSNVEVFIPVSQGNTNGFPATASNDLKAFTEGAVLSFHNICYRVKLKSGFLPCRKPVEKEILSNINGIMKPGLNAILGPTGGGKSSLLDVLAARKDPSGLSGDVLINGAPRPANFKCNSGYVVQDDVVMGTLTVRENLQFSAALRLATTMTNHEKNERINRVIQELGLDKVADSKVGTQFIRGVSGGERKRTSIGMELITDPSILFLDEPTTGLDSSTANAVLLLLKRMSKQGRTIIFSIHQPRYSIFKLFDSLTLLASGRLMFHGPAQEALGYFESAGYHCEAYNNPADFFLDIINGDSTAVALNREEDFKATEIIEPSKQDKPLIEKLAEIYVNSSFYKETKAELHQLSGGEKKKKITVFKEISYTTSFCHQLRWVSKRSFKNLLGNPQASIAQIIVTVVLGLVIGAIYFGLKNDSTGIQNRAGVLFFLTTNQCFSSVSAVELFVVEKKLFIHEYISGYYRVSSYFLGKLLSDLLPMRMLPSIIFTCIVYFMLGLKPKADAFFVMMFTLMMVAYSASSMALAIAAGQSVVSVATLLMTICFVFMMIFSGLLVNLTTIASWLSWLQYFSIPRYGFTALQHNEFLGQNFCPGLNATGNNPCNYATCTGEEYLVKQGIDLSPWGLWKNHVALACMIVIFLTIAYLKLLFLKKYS

For another series, the target named is ABCB1 (P-glycoprotein) (Homo sapiens, UniProt P08183). Kind of series: competition of […]-IAAP photoaffinity labeling in membrane vesicles. Format: binding.
ABCB1 (P-glycoprotein), sequence (P08183 whole entry): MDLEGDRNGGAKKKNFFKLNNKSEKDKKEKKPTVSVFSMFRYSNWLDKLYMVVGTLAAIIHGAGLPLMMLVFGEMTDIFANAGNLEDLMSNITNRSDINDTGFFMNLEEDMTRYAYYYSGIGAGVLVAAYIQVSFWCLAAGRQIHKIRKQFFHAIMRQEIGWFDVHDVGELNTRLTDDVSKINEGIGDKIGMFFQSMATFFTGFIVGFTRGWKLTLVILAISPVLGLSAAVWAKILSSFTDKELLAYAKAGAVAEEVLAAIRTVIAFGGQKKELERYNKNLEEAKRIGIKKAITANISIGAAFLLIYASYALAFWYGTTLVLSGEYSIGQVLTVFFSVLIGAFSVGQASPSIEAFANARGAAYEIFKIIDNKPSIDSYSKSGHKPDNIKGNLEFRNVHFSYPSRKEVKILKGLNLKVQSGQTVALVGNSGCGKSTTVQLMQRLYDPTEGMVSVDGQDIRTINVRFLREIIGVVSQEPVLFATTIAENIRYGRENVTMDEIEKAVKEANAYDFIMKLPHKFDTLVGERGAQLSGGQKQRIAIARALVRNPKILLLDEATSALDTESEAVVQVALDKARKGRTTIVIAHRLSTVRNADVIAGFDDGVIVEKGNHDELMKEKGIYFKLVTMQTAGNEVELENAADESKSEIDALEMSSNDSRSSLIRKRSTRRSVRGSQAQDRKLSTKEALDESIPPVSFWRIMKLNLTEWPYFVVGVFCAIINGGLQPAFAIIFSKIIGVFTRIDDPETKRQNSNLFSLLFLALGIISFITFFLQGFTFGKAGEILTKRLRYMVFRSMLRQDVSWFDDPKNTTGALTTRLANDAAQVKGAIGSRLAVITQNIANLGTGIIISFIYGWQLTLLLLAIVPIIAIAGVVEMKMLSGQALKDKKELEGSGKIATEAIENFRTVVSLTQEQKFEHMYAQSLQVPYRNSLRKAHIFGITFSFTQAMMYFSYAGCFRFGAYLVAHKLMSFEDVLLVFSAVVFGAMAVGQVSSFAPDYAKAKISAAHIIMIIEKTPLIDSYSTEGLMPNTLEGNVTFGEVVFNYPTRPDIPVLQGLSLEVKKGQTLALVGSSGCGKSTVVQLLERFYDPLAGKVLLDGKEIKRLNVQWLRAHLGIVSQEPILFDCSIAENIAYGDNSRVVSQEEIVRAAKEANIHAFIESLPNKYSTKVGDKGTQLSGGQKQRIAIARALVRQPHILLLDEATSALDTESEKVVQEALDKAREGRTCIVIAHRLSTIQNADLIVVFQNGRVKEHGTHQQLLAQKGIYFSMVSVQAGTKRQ

This note sets out measurements from publication PMC2652245 (Cancer research, 2008).

Regarding `C#Cc1cccc(Nc2ncnc3cc(OCCOC)c(OCCOC)cc23)c1` [erlotinib], the “inhibition of [3H]-methotrexate uptake in membrane vesicles” value on ABCG2 was “inhibitory effect of lapatinib on methotrexate transport by ABCG2 membrane vesicles is comparable to that of erlotinib and FTC”.
In general, IC50 refers to the concentration that inhibits the measured activity by half. A lower IC50 goes with inhibition by little substance. The compound `CS(=O)(=O)CCNCc1ccc(-c2ccc3ncnc(Nc4ccc(OCc5cccc(F)c5)c(Cl)c4)c3c2)o1` [lapatinib, N-{3-chloro-4-[(3-fluorobenzyl)oxy]phenyl}-6-[5-({[2-(methylsulfonyl)ethyl]amino}methyl)-2-furyl]-4-quinazolinamine] yielded a half-inhibitory concentration (IC50) at ABCB1 (P-glycoprotein) of 2800 ± 600 nM.
